Assay results reported in patent US20140234317A1, “METHODS FOR PREVENTING TOXIC DRUG-DRUG INTERACTIONS IN COMBINATION THERAPIES COMPRISING ANTI-ERBB3 AGENTS” (Merrimack Pharmaceuticals, Inc., priority 2011, published 2014).

Columns and labels:
[1] = system: plasma protein; conditions: TKIs in clinical use; cited from earlier work
[2] = system: alpha 1-acid glycoprotein (AAG); conditions: reported; cited from earlier work
[3] = Average plasma concentration of erlotinib co-administered with MM-121; assay type: in vivo, human; conditions: for Erlotinib Avg Conc.: plasma
Text: The ability of the anti-ErbB3 agent to alter the pharmacokinetics of a co-administered AAGB or TKI can be evaluated by measuring serum drug levels and calculating pharmacokinetic parameters. Pharmacokinetic parameters referred to herein (e.g., Example 1) describe the in vivo characteristics of a drug over time. These include plasma concentration (C), as well as Cmax, Tmax, and AUC. The term “Cmax” refers to the measured plasma concentration of the active agent at the point of maximum, or peak, concentration following an administration. The term “Tmax” refers to the time from drug administration until Cmax is reached. The term “AUC” refers to the area under the curve of a graph of the measured plasma concentration of an active agent vs. time, measured from one time point to another time point. For example AUC0-t is the area under the curve of plasma concentration versus time from time 0 to time t, where time 0 is the time of initial administration of the drug. Time t can be the last time point with measurable plasma concentration for an individual drug.
Patients also received one of two different doses of erlotinib (either 100 mg or 150 mg) administered daily orally. The antibody administration began on Day 1 and continued with weekly doses and the erlotinib administration began on Day 2 and continued with daily doses. Pharmacokinetic parameters were monitored for the duration of treatment, until the patient's cancer progressed or the patient came off the study.
For the erlotinib, the average plasma concentration was measured.

SMILES	plasma protein binding [1]	binding to AAG that can alter bioavailability [2]	further results
Cc1nc(Nc2ncc(C(=O)Nc3c(C)cccc3Cl)s2)cc(N2CCN(CCO)CC2)n1 [dasatinib]	high		
Cc1ccc(NC(=O)c2ccc(CN3CCN(C)CC3)cc2)cc1Nc1nccc(-c2cccnc2)n1 [imatinib]		significant binding	
CN(C)C/C=C/C(=O)Nc1cc2c(Nc3ccc(F)c(Cl)c3)ncnc2cc1O[C@H]1CCOC1 [afatinib]	high		
Cc1ccc(Nc2nccc(N(C)c3ccc4c(C)n(C)nc4c3)n2)cc1S(N)(=O)=O [pazopinib]	high		
Cc1cn(-c2cc(NC(=O)c3ccc(C)c(Nc4nccc(-c5cccnc5)n4)c3)cc(C(F)(F)F)c2)cn1 [nilotinib]	high		
COc1cc2ncnc(Nc3ccc(F)c(Cl)c3)c2cc1OCCCN1CCOCC1 [gefitinib]	high	significant binding	
C#Cc1cccc(Nc2ncnc3cc(OCCOC)c(OCCOC)cc23)c1 [Erlotinib, erlotinib]	high	significant binding	higher average plasma concentration of erlotinib ([3]; Patient 5 (12 mg/kg MM-121) vs Patient 2 (6 mg/kg MM-121), each 150 mg erlotinib): approximately 2.19 fold; higher average plasma concentration of erlotinib ([3]; Patient 8 (12 mg/kg MM-121) vs Patient 1 (6 mg/kg MM-121), each 100 mg erlotinib): approximately 2.02 fold; Erlotinib Avg Conc. ([3]; Subject 1, erlotinib 100 mg daily oral + MM-121 6 mg/kg weekly i.v.): 384 ng/mL; Erlotinib Avg Conc. ([3]; Subject 2, erlotinib 150 mg daily oral + MM-121 6 mg/kg weekly i.v.): 624 ng/mL; Erlotinib Avg Conc. ([3]; Subject 3, erlotinib 150 mg daily oral + MM-121 6 mg/kg weekly i.v.): 569 ng/mL; Erlotinib Avg Conc. ([3]; Subject 4, erlotinib 150 mg daily oral + MM-121 6 mg/kg weekly i.v.): 656 ng/mL; Erlotinib Avg Conc. ([3]; Subject 5, erlotinib 150 mg daily oral + MM-121 12 mg/kg weekly i.v.): 1370 ng/mL; Erlotinib Avg Conc. ([3]; Subject 6, erlotinib 150 mg daily oral + MM-121 12 mg/kg weekly i.v.): 1165.3 ng/mL; Erlotinib Avg Conc. ([3]; Subject 7, erlotinib 100 mg daily oral + MM-121 12 mg/kg weekly i.v.): 2395.6 ng/mL; Erlotinib Avg Conc. ([3]; Subject 8, erlotinib 100 mg daily oral + MM-121 12 mg/kg weekly i.v.): 777.5894 ng/mL; higher average plasma concentration of erlotinib ([3]; patients treated with 12 mg/kg anti-ErbB3 antibody compared to patients treated with 6 mg/kg): 2-3 fold
CCN(CC)CCNC(=O)c1c(C)[nH]c(/C=C2\C(=O)Nc3ccc(F)cc32)c1C [sunitinib]	high		
CS(=O)(=O)CCNCc1ccc(-c2ccc3ncnc(Nc4ccc(OCc5cccc(F)c5)c(Cl)c4)c3c2)o1 [lapatinib]	high	significant binding	
CNC(=O)c1cc(Oc2ccc(NC(=O)Nc3ccc(Cl)c(C(F)(F)F)c3)cc2)ccn1 [sorafenib]	high		
